Laboratory results taken from BigSolDB 2.1.

CC(=O)N[C@@H](Cc1ccc(O)cc1)C(=O)O
solubility (mole fraction)
Settings	283.15 K	288.15 K	293.15 K	298.15 K	303.15 K	308.15 K	313.15 K	318.15 K	323.15 K
in acetone	0.106	0.116	0.132	0.136	0.145	0.152	0.166	0.181	0.197
in acetonitrile	0.00301	0.00353	0.00436	0.00526	0.0064	0.00795	0.00988	0.0129	0.017
in dimethyl carbonate	0.00114	0.00122	0.00127	0.0015	0.00224	0.00267	0.00307	0.00373	0.00404
in ethyl acetate	0.00383	0.00412	0.00477	0.00507	0.00577	0.00655	0.0073	0.00849	0.0102
in isobutanol	0.0349	0.0378	0.0468	0.0522	0.06	0.0683	0.0777	0.0853	0.0973
in isopentanol	0.0363	0.0394	0.0487	0.05	0.0568	0.0634	0.0635	0.0749	0.0807
in isopropanol	0.0772	0.0942	0.105	0.111	0.122	0.134	0.148	0.159	0.171
in methyl acetate	0.00475	0.00537	0.00621	0.00723	0.0085	0.00995	0.0115	0.0139	0.0162
in n-butanol	0.0529	0.058	0.0653	0.0715	0.0789	0.0892	0.0911	0.0979	0.108
in n-butyl acetate	0.00136	0.00179	0.00214	0.00252	0.003	0.00351	0.00388	0.00413	0.00435
in n-propyl acetate	0.00163	0.00185	0.00232	0.00261	0.00289	0.00366	0.0041	0.00509	0.00537
in sec-butanol	0.08	0.0885	0.0967	0.103	0.113	0.125	0.137	0.146	0.159
in water	0.00875	0.00935	0.0115	0.0154	0.021	0.0292	0.0459	0.0726	0.106
